Data from publication PMC4718634, “Murine GPRC6A Mediates Cellular Responses to L-Amino Acids, but Not Osteocalcin Variants” (PLoS ONE, 2016).
Entries after “also recorded” stand apart in the source; their conditions may differ. Bridge positions count the residues as written; N and C are the ends. Ends that are not written are not given here.

Key:
mGPRC6A (mouse GPRC6A) = molecular target: T1, mGPRC6A (mouse GPRC6A) (Mus musculus, UniProt Q8K4Z6); assay: Ca^2+i mobilisation, FlpIn-TREx-HEK293-mGPRC6A cells; type: cell-based; conditions: for activity in calcium mobilisation assays: with co-expressed Gαq or GαqG66D
T1 sequence (Q8K4Z6 21-928): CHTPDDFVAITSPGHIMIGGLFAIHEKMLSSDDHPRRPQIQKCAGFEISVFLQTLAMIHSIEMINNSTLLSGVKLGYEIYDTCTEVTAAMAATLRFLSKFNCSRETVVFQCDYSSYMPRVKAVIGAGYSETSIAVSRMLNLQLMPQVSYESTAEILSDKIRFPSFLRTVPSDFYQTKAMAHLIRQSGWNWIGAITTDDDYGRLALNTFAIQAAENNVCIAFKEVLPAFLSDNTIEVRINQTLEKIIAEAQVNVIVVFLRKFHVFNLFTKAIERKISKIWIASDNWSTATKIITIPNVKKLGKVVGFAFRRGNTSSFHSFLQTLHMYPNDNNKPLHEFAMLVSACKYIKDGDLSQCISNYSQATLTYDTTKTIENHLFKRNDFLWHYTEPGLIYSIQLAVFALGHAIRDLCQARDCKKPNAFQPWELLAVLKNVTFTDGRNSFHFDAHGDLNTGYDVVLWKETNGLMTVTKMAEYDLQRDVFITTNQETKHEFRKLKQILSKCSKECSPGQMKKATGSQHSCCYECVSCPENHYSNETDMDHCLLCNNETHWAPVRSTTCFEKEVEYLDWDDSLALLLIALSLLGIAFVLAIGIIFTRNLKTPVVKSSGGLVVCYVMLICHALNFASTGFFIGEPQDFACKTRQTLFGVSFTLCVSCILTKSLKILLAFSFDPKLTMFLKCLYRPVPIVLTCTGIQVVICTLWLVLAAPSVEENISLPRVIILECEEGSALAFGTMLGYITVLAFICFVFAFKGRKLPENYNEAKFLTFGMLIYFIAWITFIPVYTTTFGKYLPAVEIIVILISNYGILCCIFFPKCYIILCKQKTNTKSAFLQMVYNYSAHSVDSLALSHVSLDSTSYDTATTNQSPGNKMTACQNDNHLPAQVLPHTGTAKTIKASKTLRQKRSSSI
Description: pcDNA 5/FRT/TO constructs were isogenically integrated into a FlpIn-TREx-HEK293 cell line (Life Technologies). FlpIn-TREx-HEK293-mGPRC6A and FlpIn-TREx-HEK293-hGPRC6A cells were then selected using 600 μg/ml hygromycin and 5 μg/ml blasticidin and grown in culture medium consisting of Dulbecco’s Modified Eagle Medium (DMEM), supplemented with 10% (v/v) foetal bovine serum (FBS) at 37°C in 5% CO2 and were sub-cultured in a 1:3 ratio every 3–4 days. Cells were cultured overnight in the presence of 1 μg/ml tetracycline to induce GPRC6A expression. […] 48 h after transfection, cells were selected using 3 μg/ml puromycin and grown as above.
FlpIn-TREx-HEK293-mGPRC6A cells were seeded into T75 flasks at 70% confluency. Cells were transfected with 15μg of plasmid DNA (Gαq or GαqG66D) with Lipofectamine LTX according to manufacturer's instructions, then incubated for 24h at 37°C in 5% CO2. Cells were plated into 96-well plates (10^5 cells/well) and equilibrated at 37°C in 5% CO2 for 4-6h to adhere, whereupon cells were serum starved overnight at 37°C in 5% CO2. For the assay, cells were washed twice in Ca^2+ assay buffer (150 mM NaCl, 2.6 mM KCl, 1.2 mM MgCl2, 10 mM dextrose, 10 mM HEPES, 2.2 mM CaCl2, 0.5% (w/v) BSA and 4 mM probenecid; pH 7.4). Buffer was then replaced with Ca^2+ assay buffer containing 1μM Fluo-4-AM and incubated for 1h at 37°C in 5% CO2. Cells were washed twice more and replaced with Ca^2+ assay buffer at 37°C. Serial dilutions of test agonists were added by injection in a Flexstation™ (Molecular Devices) and fluorescence was measured at 485nm excitation and 520nm emission wavelengths. Agonist responses were normalised to the peak of response to 100 μM ATP.
(§1) Data for all HEK293 assays represent the mean ± SEM of at least three independent experiments (except cell impedance, n = 2). For GLP-1 release, the data represent mean ± SEM of three to five independent experiments (except for OCN, wash; n = 2). For insulin release assays, data represent the mean ± SEM of three independent experiments (except for islet studies; n = 2). Insulin release data were normalised to the response to vehicle in either low or high [glucose]. Statistical analysis for GLP-1 release data were performed by one-way ANOVA, followed by Sidak’s multiple comparisons test (treating wash / no wash datasets separately). Statistical analyses for insulin release data were performed by two-way ANOVA (with [glucose] and drug treatment as group variables), followed by Sidak’s multiple comparisons test. Where only high [glucose] groups were evaluated, statistical analysis was by one-way ANOVA followed by Sidak’s multiple comparisons test.

GPRC6A [1] = conditions: ref [6] (supplement list); cited from earlier work
Description: (§2) Supplement pone.0146846.s004.docx, table 1 | column: Functional assay

INS-1(832) cells = assay: Label-free cell impedance, INS-1(832) cells; type: cell-based, rat; conditions: Gprc6a-negative, EBSS, 2.8 mM glucose, Fig 7, two-way ANOVA, *P < 0.05, **P < 0.01 vs Vehicle
Description: For INS-1 cells, 100 μl of medium (RPMI 1640 no glucose, 10% FBS, 55 μM β-mercaptoethanol, 1 mM sodium pyruvate, 10 mM HEPES, 100 U/ml penicillin, 100 μg/ml streptomycin, 11.1 mM glucose) was added per well to an E-plate 96 and a background reading taken. Cells were seeded at 2 x 10^4 / well and the plates incubated in the instrument for 48 h. On the day of the experiment, media was changed to EBSS buffer (180 μl; 2.8 mM glucose, 1.8 mM CaCl2, 5.3 mM KCl, 0.8 mM MgSO4, 117 mM NaCl, 26 mM NaHCO3, 1 mM NaH2PO4). After 2 h incubation, cells were stimulated with 20 μl test compound (10 x final) prepared in the same buffer. Data capture and analysis were as for HEK293 cells.

GPRC6A [2] = conditions: HEK293, mouse GPRC6A with human OCN; ref [11]; cited from earlier work
Description: Additional interest in GPRC6A has emerged due to several studies reporting that it mediates the metabolic and endocrine effects of the de-carboxylated form of the osteoblast-derived peptide, osteocalcin (OCN).

mC6A = conditions: ref [10] (supplement list); cited from earlier work
Description: as §2

22RV1 / PC-3 = conditions: endogenous; ref [9] (supplement list); cited from earlier work
Description: as §2

GLUTag cells = assay: GLP-1 release from GLUTag cells; type: cell-based, murine; conditions: 0.01–10 ng/ml; with or without cell washing; 2 h; Fig 6A; listed as Human synthetic OCN
Description: Intestinal L-cell model GLUTag cells were seeded in 24-well plates coated with Matrigel and incubated for 6 days in DMEM with 10% FBS, 100 U/ml penicillin, 100 μg/ml streptomycin at 37°C in 5% CO2 and grown for 4–5 days. Where indicated, cells were washed (1 or 2 x 1h) with Krebs-HEPES buffer (20 mM HEPES, 118 mM NaCl, 4.7 mM KCl, 1.2 mM MgSO4, 5 mM NaHCO3, 1.2 mM KH2PO4, 2.5 mM CaCl2, 5.5 mM glucose, 0.2% BSA (w/v), pH 7.2) containing vildagliptin (300 μM) prior to addition of test compounds in the same buffer. After 2 h incubation at 37°C in 5% CO2, the supernatant was recovered and centrifuged at 500 rpm for 5 min. Where used, NPS-2143 pre-treatment was for 30 min.
GLP-1 content in the cell supernatant was measured by ELISA (EGLP-35K, Millipore), according to manufacturer’s instructions after overnight incubation of 15 μl supernatant in 100 μl Krebs-HEPES buffer at 4°C. After 5 x washes, 200 μl of detection conjugate was added and incubated for 2 h at RT. After 3 x washes the reaction was developed with 200 μl of diluted substrate (1:200) for 20 min and terminated by addition of 50 μl stop solution. After 5 min, fluorescence was then measured using 355 nm excitation and 460 nm emission, transforming the obtained signal into pmol GLP-1/well/ml and corrected for GLUTag cell protein content as determined using the method of Bradford (1976).
as §1, with “Concentration-response data were analysed using a three or four parameter logistic function (Motulsky & Christopoulos, 2004) to generate estimates of agonist potency (LogEC50). Data” for “Data”

Molecule: N[C@@H](Cc1c[nH]cn1)C(=O)O [L-histidine]
- EC50 (mGPRC6A (mouse GPRC6A)): > 1 mM
- activity in calcium mobilisation assays (mGPRC6A (mouse GPRC6A)): little or no activity

Molecule: NC(=O)CC[C@H](N)C(=O)O [L-glutamine]
- EC50 (mGPRC6A (mouse GPRC6A)): > 1 mM
- activity in calcium mobilisation assays (mGPRC6A (mouse GPRC6A)): little or no activity

Molecule: [Ca+2].[Cl-].[Cl-] [CaCl2]
- SRE-reporter gene response (GPRC6A [1]): pERK1/2 – response to Ca^2+, Mg^2+, Gd^3+, Al^3+, NPS R568 SRE-reporter gene – response to CaCl2, SrCl2, MgCl2, GdCl3 and OCN

Molecule: mouse OCN: in b69: synthetic mouse OCN of Fig 7 (GSPEFYLGASVPSPDPLEPTREQCELNPACDELSDQYGLKTAYKRIYGITI; ends and bridges not checked; cysteine pairing not given here)
- change in cell impedance (cell index) (INS-1(832) cells): significant, concentration-dependent activity

Molecule: [Cl-].[Cl-].[Sr+2] [SrCl2]
- SRE-reporter gene response (GPRC6A [1]): pERK1/2 – response to Ca^2+, Mg^2+, Gd^3+, Al^3+, NPS R568 SRE-reporter gene – response to CaCl2, SrCl2, MgCl2, GdCl3 and OCN

Molecule: human OCN: in b69: synthetic human OCN of Fig 7; in b64: human OCN of ref 11 (YLYQWLGAPVPYPDPLEPRREVCELNPDCDELADHIGFQEAYRRFYGPV; disulfide 23-29 (inferred); not fully specified; printed as YLYQWLGAPVPYPDPLEPRREVCELNPDCDELADHIGFQEAYRRFYGPV-NH2/-COOH; ends not checked; UniProt P02818 52-100, looked up)
- OCN concentration stimulating cAMP accumulation (GPRC6A [2]): 60 ng/mL
- change in cell impedance (cell index) (INS-1(832) cells): significant, concentration-dependent activity

Molecule: CC(C)[C@H](N)C(=O)O [L-valine]
- EC50 (mGPRC6A (mouse GPRC6A)): > 1 mM
- activity in calcium mobilisation assays (mGPRC6A (mouse GPRC6A)): little or no activity

Molecule: [Cl][Gd]([Cl])[Cl] [GdCl3]
- SRE-reporter gene response (GPRC6A [1]): pERK1/2 – response to Ca^2+, Mg^2+, Gd^3+, Al^3+, NPS R568 SRE-reporter gene – response to CaCl2, SrCl2, MgCl2, GdCl3 and OCN

Molecule: C[C@]1(O)CC[C@H]2[C@@H]3CCC4=CC(=O)CCC4=C3C=C[C@@]21C [R1881]
- SRE-reporter gene response (mC6A): pERK1/2 – response to Testosterone-BSA, R1881 SRE-reporter gene – response to R1881, Ca^2+
- pERK1/2 response (mC6A): pERK1/2 – response to Testosterone-BSA, R1881 SRE-reporter gene – response to R1881, Ca^2+
- PSA, Runx2 expression response (22RV1 / PC-3): pERK1/2 – response to Ca^2+, ZnCl2, OCN, Arginine, Testosterone-BSA Proliferation – response to Ca^2+, OCN PSA, Runx2 expression – response to OCN, Arg, R1881 Chemotaxis (22RV1) – response to Ca^2+, OCN

Molecule: [Cl-].[Cl-].[Mg+2] [MgCl2]
- SRE-reporter gene response (GPRC6A [1]): pERK1/2 – response to Ca^2+, Mg^2+, Gd^3+, Al^3+, NPS R568 SRE-reporter gene – response to CaCl2, SrCl2, MgCl2, GdCl3 and OCN

Molecule: YLYQWLGAPVPYPDPLEPRREVCELNPDCDELADHIGFQEAYRRFYGPV-NH2/-COOH (disulfide) [human synthetic OCN, synthetic de-carboxylated human osteocalcin, Federation Bioscience]
- GLP-1 release, OCN (GLUTag cells): did not significantly modulate GLP-1 release
- change in cell impedance (cell index) (INS-1(832) cells; listed as synthetic human OCN): significant changes in cell impedance; also recorded: Concentration-dependent increases in cell index

Molecule: COc1cccc([C@@H](C)NCCCc2ccccc2Cl)c1 [NPS R568]
- pERK1/2 response (GPRC6A [1]): pERK1/2 – response to Ca^2+, Mg^2+, Gd^3+, Al^3+, NPS R568 SRE-reporter gene – response to CaCl2, SrCl2, MgCl2, GdCl3 and OCN
